In PubChem BioAssay AID602165 (The Scripps Research Institute Molecular Screening Center, 2012) one finds IC50 data, which are given here for eight compounds.

Each structure is given as a SMILES string.

The target of the experiment is Induced myeloid leukemia cell differentiation protein Mcl-1 (Homo sapiens) (UniProt Q07820). The experiment in a line: blockers of MCL1–BIM BH3 interaction – biochemical, fluorescence polarization, assay provider data, round 3, late-stage follow-up (AID 602165). The settings on record: GST-MCL1 / FITC-BIM-BH3 peptide fluorescence polarization. On the technique in general: In fluorescence polarisation assays a small probe gives low polarisation when free and higher when bound to something large.
Induced myeloid leukemia cell differentiation protein Mcl-1 (Homo sapiens), sequence (Q07820 whole entry, looked up): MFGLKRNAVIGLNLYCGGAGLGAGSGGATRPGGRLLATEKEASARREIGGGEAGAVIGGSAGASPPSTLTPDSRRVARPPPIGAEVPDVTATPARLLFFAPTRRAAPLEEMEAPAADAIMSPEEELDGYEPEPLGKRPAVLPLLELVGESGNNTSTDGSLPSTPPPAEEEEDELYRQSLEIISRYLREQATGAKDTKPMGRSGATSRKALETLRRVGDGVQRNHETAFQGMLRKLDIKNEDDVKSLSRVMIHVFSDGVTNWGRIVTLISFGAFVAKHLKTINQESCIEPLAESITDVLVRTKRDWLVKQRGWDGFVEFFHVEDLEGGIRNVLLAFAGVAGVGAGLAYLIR
On to `CCN1CCN(C(c2cccs2)c2ccc3cccnc3c2O)CC1` (stereo not drawn), for which the IC50 is 1600 nM.

For the compound `Cc1ccnc(NC(c2cccs2)c2ccc3cccnc3c2O)c1` (stereo not drawn), the IC50 was 400 nM.

Turning to `CC(C)Oc1ccc(C(Nc2ccccn2)c2ccc3cccnc3c2O)cc1` (stereo not drawn), the IC50 was 1300 nM.

Consider `CN1CCN(C(c2ccc(F)cc2)c2ccc3cccnc3c2O)CC1` (stereo not drawn), for which the IC50 is 600 nM.

Consider `Oc1c(C(Nc2ccccn2)c2cccs2)ccc2cccnc12` (stereo not drawn), for which the IC50 was 600 nM.

For the compound `Oc1c(C(c2cccs2)N2CCN(c3ccccn3)CC2)ccc2cccnc12` (stereo not drawn), the IC50 was 500 nM.

With `OCCN1CCN(C(c2cccs2)c2ccc3cccnc3c2O)CC1` (stereo not drawn), the half-maximal inhibitory concentration (IC50) was 3300 nM.

As for `Oc1c(C(c2cccs2)N2CCCCC2)ccc2cccnc12` (stereo not drawn), the IC50 is 2500 nM.

As a reminder, the IC50 is the concentration at which inhibition is half-maximal.
